Assay results reported in US8716281B2, “Pyrimidine compounds that inhibit anaplastic lymphoma kinase” (Amgen Inc., priority 2010, dated 2014).

The compounds below were run against T1, wild-type human ALK cytoplasmic domain (amino acids 1058-1620) (Homo sapiens, UniProt Q9UM73) (assay: ALK Inhibition in Enzyme Assay (Lance TR-FRET)). Conditions: 2 nM enzyme, ATP at 40 μM (Km apparent), 90 minutes, mean of three replicates; read-out: ALK IC50.
T1 construct: The cytoplasmic domain (amino acids 1058-1620) of wild-type human ALK; GST (N); made in house; host or cells: SF9 insect cells
Assay type: biochemical
How it was run: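 TR-FRET read-out (Eu-W1024 PT66 anti-phosphotyrosine plus streptavidin-allophycocyanin, 320 nm excitation) quantified biotinylated peptide phosphorylation by the purified kinase. Reaction ran 90 minutes at room temperature before quenching with 20 mM EDTA in Tris pH 7.5 buffer with NaCl, BSA and Tween-20.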

T1 sequence (Q9UM73 1058-1620): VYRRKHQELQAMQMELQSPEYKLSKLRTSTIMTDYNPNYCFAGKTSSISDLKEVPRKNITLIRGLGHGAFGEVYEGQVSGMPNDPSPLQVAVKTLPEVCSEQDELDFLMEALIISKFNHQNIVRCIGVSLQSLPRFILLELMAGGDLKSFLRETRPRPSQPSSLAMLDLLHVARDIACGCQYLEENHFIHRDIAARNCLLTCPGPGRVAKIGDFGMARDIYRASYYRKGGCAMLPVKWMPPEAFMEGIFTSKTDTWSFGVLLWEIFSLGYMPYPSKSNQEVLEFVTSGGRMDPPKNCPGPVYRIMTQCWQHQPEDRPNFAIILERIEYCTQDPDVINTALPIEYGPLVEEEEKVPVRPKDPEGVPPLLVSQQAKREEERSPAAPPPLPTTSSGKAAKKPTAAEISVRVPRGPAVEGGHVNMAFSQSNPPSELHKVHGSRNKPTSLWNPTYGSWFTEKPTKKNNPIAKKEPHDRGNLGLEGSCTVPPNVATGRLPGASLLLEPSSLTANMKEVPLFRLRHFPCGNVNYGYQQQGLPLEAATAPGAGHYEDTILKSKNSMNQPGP

| Compound | IC50 [nM] |
| --- | --- |
| CNC(=O)c1cccc(Nc2nccc(N3CCC[C@H](C(=O)NCc4ccc(C)cc4)C3)n2)c1 [Example 168, (3S)-N-(4-methylbenzyl)-1-(2-((3-(methylcarbamoyl)phenyl)amino)-4-pyrimidinyl)-3-piperidinecarboxamide] | 1000 to 5000 |
| COc1cc(Nc2nccc(N3CCC[C@H](C(=O)NCc4ccc(C)cc4)C3)n2)cc(C(F)(F)F)c1 [Example 170, (3S)-1-(2-((3-methoxy-5-(trifluoromethyl)phenyl)amino)-4-pyrimidinyl)-N-(4-methylbenzyl)-3-piperidinecarboxamide] | 100 to 1000 |
| Cc1ccc(CNC(=O)[C@H]2CCCN(c3ccnc(Nc4ccc(C(N)=O)cc4)n3)C2)cc1 [Example 173, (3S)-1-(2-((4-carbamoylphenyl)amino)-4-pyrimidinyl)-N-(4-methylbenzyl)-3-piperidinecarboxamide] | 1000 to 5000 |
| Cc1ccc(CNC(=O)[C@H]2CCCN(c3ccnc(Nc4cc(Cl)cc(Cl)c4)n3)C2)cc1 [Example 174, (3S)-1-(2-((3,5-dichlorophenyl)amino)-4-pyrimidinyl)-N-(4-methylbenzyl)-3-piperidinecarboxamide] | 1000 to 5000 |
| Cc1ccc(CNC(=O)[C@H]2CCCN(c3ccnc(Nc4cccc(OCc5ccccc5)c4)n3)C2)cc1 [Example 175, (3S)-1-(2-((3-(benzyloxy)phenyl)amino)-4-pyrimidinyl)-N-(4-methylbenzyl)-3-piperidinecarboxamide] | 1000 to 5000 |
| Cc1ccc(CNC(=O)[C@H]2CCCN(c3ccnc(Nc4cccc(-c5nnn[nH]5)c4)n3)C2)cc1 [Example 176, (3S)-N-(4-methylbenzyl)-1-(2-((3-(1H-tetrazol-5-yl)phenyl)amino)-4-pyrimidinyl)-3-piperidinecarboxamide] | 5000 to 10000 |
| Cc1ccc(CNC(=O)[C@H]2CCCN(c3ccnc(Nc4cccc(-c5cnco5)c4)n3)C2)cc1 [Example 177, (3S)-N-(4-methylbenzyl)-1-(2-((3-(1,3-oxazol-5-yl)phenyl)amino)-4-pyrimidinyl)-3-piperidinecarboxamide] | 100 to 1000 |
| Cc1ccc(CNC(=O)[C@H]2CCCN(c3ccnc(Nc4ccc(F)cc4)n3)C2)cc1 [Example 179, (3S)-1-(2-((4-fluorophenyl)amino)-4-pyrimidinyl)-N-(4-methylbenzyl)-3-piperidinecarboxamide] | 1000 to 5000 |
| Cc1ccc(CNC(=O)[C@H]2CCCN(c3ccnc(Nc4ccc(C)cc4)n3)C2)cc1 [Example 180, (3S)-N-(4-methylbenzyl)-1-(2-((4-methylphenyl)amino)-4-pyrimidinyl)-3-piperidinecarboxamide] | 1000 to 5000 |
| Cc1ccc(CNC(=O)[C@H]2CCCN(c3ccnc(Nc4cccc(C(C)(C)C)c4)n3)C2)cc1 [Example 181, (3S)-1-(2-((3-tert-butylphenyl)amino)-4-pyrimidinyl)-N-(4-methylbenzyl)-3-piperidinecarboxamide] | 100 to 1000 |
| CC(=O)NCc1cccc(Nc2nccc(N3CCC[C@H](C(=O)NCc4ccc(C)cc4)C3)n2)c1 [Example 183, (3S)-1-(2-((3-((acetylamino)methyl)phenyl)amino)-4-pyrimidinyl)-N-(4-methylbenzyl)-3-piperidinecarboxamide] | 100 to 1000 |
| Cc1ccc(CNC(=O)[C@H]2CCCN(c3ccnc(Nc4ccc(C(=O)c5ccccc5)cc4)n3)C2)cc1 [Example 186, (S)-1-(2-(4-benzoylphenylamino)pyrimidin-4-yl)-N-(4-methylbenzyl)piperidine-3-carboxamide] | 5000 to 10000 |
| CCN(CC)CCNC(=O)c1ccc(Nc2nccc(N3CCC[C@H](C(=O)NCc4ccc(C)cc4)C3)n2)cc1 [Example 187, (S)-1-(2-(4-(2-(diethylamino)ethylcarba-moyl)phenylamino)pyri-midin-4-yl)-N-(4-methylbenzyl)piperidine-3-carboxamide] | 100 to 1000 |
| Cc1ccc(CNC(=O)[C@H]2CCCN(c3ccnc(Nc4ccc(S(N)(=O)=O)cc4)n3)C2)cc1 [Example 188, (S)-N-(4-methylbenzyl)-1-(2-(4-sulfamoylphenylamino)pyrimidin-4-yl)piperidine-3-carboxamide] | 100 to 1000 |
| Cc1ccc(CNC(=O)[C@H]2CCCN(c3ccnc(Nc4ccc(-n5cncn5)cc4)n3)C2)cc1 [Example 191, (S)-1-(2-(4-(1H-1,2,4-triazol-1-yl)phenylamino)pyrimidin-4-yl)-N-(4-methylbenzyl)piperidine-3-carboxamide] | 1000 to 5000 |

Second part, the compound after the results:

| IC50 [nM] | Compound |
| --- | --- |
| 100 to 1000 | COc1cc(F)cc(Nc2nccc(N3CCC[C@H](C(=O)NCc4ccc(C)cc4)C3)n2)c1 [Example 169, (3S)-1-(2-((3-fluoro-5-methoxyphenyl)amino)-4-pyrimidinyl)-N-(4-methylbenzyl)-3-piperidinecarboxamide] |
| 100 to 1000 | Cc1ccc(CNC(=O)[C@H]2CCCN(c3ccnc(Nc4cccc(C(C)C)c4)n3)C2)cc1 [Example 171, (3S)-N-(4-methylbenzyl)-1-(2-((3-(1-methylethyl)phenyl)amino)-4-pyrimidinyl)-3-piperidinecarboxamide] |
| 1000 to 5000 | Cc1ccc(CNC(=O)[C@H]2CCCN(c3ccnc(Nc4ccc(C(C)C)cc4)n3)C2)cc1 [Example 172, (3S)-N-(4-methylbenzyl)-1-(2-((4-(1-methylethyl)phenyl)amino)-4-pyrimidinyl)-3-piperidinecarboxamide] |
| 100 to 1000 | CC(=O)Nc1cccc(Nc2nccc(N3CCC[C@H](C(=O)NCc4ccc(C)cc4)C3)n2)c1 [Example 178, (3S)-1-(2-((3-(acetylamino)phenyl)amino)-4-pyrimidinyl)-N-(4-methylbenzyl)-3-piperidinecarboxamide] |
| 100 to 1000 | Cc1ccc(CNC(=O)[C@H]2CCCN(c3ccnc(Nc4cccc(-c5ccccc5)c4)n3)C2)cc1 [Example 182, (3S)-1-(2-(3-biphenylylamino)-4-pyrimidinyl)-N-(4-methylbenzyl)-3-piperidinecarboxamide] |
| 100 to 1000 | Cc1ccc(CNC(=O)[C@H]2CCCN(c3ccnc(Nc4cccc(CC(N)=O)c4)n3)C2)cc1 [Example 184, (3S)-1-(2-((3-(2-amino-2-oxoethyl)phenyl)amino)-4-pyrimidinyl)-N-(4-methylbenzyl)-3-piperidinecarboxamide] |
| 1000 to 5000 | Cc1ccc(CNC(=O)[C@H]2CCCN(c3ccnc(Nc4cccc(F)c4)n3)C2)cc1 [Example 185, (3S)-1-(2-((3-fluorophenyl)amino)-4-pyrimidinyl)-N-(4-methylbenzyl)-3-piperidinecarboxamide] |
| 1000 to 5000 | Cc1ccc(CNC(=O)[C@H]2CCCN(c3ccnc(Nc4ccc(-c5cnco5)cc4)n3)C2)cc1 [Example 189, (S)-N-(4-methylbenzyl)-1-(2-(4-(oxazol-5-yl)phenylamino)py-rimidin-4-yl)piperidine-3-carboxamide] |
| 50 to 100 | Cc1ccc(CNC(=O)[C@H]2CCCN(c3ccnc(Nc4cc(OC[C@H]5CCCN5C)cc(C(F)(F)F)c4)n3)C2)cc1 [Example 190, (S)-N-(4-methylbenzyl)-1-(2-(3-(((R)-1-methylpyrrolidin-2-yl)methoxy)-5-(trifluoromethyl)phenylamino)pyrimidin-4-yl)piperidine-3-carboxamide] |
| 1000 to 5000 | CCOc1ccc(Nc2nccc(N3CCC[C@H](C(=O)NCc4ccc(C)cc4)C3)n2)cc1 [Example 192, (S)-1-(2-(4-ethoxyphenylamino)pyrimidin-4-yl)-N-(4-methylbenzyl)piperidine-3-carboxamide] |
| 1000 to 5000 | Cc1ccc(CNC(=O)[C@H]2CCCN(c3ccnc(Nc4ccc(N5CCNC(=O)C5)nc4)n3)C2)cc1 [Example 193, (S)-N-(4-methylbenzyl)-1-(2-(6-(3-oxopiperazin-1-yl)pyridin-3-ylamino)pyrimidin-4-yl)piperidine-3-carboxamide] |
